Columns and labels:
Format in all cases: in vivo
wild oat (Avena fatua) = assay: Test B postemergence; details: for Oat, Wild plant response rating: 125 g ai/ha, scale 0 to 100 (0 no effect, 100 complete control); for Plant response rating, Oat, Wild: 500 g ai/ha, scale 0 to 100
Outline: (§1)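 Pre: compound (non-phytotoxic solvent + surfactant) applied to freshly planted seeds. Post: same formulation sprayed on 2–18 cm plants, 1- to 4-leaf. Readout: visual control rating 0–100 vs controls, 13–15 d, greenhouse.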

[1] = system: blackgrass (Alopecurus myosuroides); assay: Test B postemergence; details: for Blackgrass plant response rating: 125 g ai/ha, scale 0 to 100 (0 no effect, 100 complete control); for Plant response rating, Blackgrass: 500 g ai/ha, scale 0 to 100
Outline: as §1

[2] = system: duck salad (Heteranthera limosa); assay: Test B flooded paddy test; details: Flood, 1000 g ai/ha; scale 0 to 100
Outline: (§2)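 Visual injury scoring (0 = no effect, 100 = complete control) versus controls made 13 to 15 days after treatment in the greenhouse. Test species were grown in flooded paddy to the 2-leaf stage: rice, barnyardgrass, umbrella sedge, duck salad.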

[3] = system: barnyardgrass (Echinochloa crus-galli); assay: Test B flooded paddy test; details: Flood, 1000 g ai/ha; scale 0 (no effect) to 100 (complete control)
Outline: as §2

[4] = system: umbrella sedge (Cyperus difformis); assay: Test B flooded paddy test; details: Flood, 1000 g ai/ha; scale 0 to 100
Outline: as §2

rice (Oryza sativa) = assay: Test B flooded paddy test; details: Flood, 1000 g ai/ha; scale 0 to 100
Outline: as §2

[5] = system: cocklebur (Xanthium strumarium); assay: Test B pre/postemergence
Outline: as §1

[6] = system: giant foxtail (Setaria faberii); assay: Test B pre/postemergence
Outline: as §1

[7] = system: morningglory (Ipomoea coccinea); assay: Test B pre/postemergence
Outline: as §1

corn (Zea mays) = assay: Test B pre/postemergence
Outline: as §1

[8] = system: velvetleaf (Abutilon theophrasti); assay: Test B pre/postemergence
Outline: as §1

[9] = system: wheat (Triticum aestivum); assay: Test B pre/postemergence
Outline: as §1

[10] = system: pigweed (Amaranthus retroflexus); assay: Test B pre/postemergence
Outline: as §1

[11] = system: lambsquarters (Chenopodium album); assay: Test B pre/postemergence
Outline: as §1

[12] = system: barnyardgrass (Echinochloa crus-galli); assay: Test B pre/postemergence
Outline: as §1

[13] = system: crabgrass (Digitaria sanguinalis); assay: Test B pre/postemergence
Outline: as §1

[14] = system: Surinam grass (Brachiaria decumbens); assay: Test B pre/postemergence
Outline: as §1

[15] = Postemergence, 125 g ai/ha, scale 0 to 100 (0 no effect, 100 complete control)
[16] = Postemergence, 500 g ai/ha, scale 0 to 100
[17] = Preemergence, 125 g ai/ha, scale 0 to 100 (0 no effect, 100 complete control)
[18] = Preemergence, 500 g ai/ha, scale 0 to 100 (0 no effect, 100 complete control)

Nc1nc(C2CC2)nc(C=NO)c1Br [Compound 27]
Oat, Wild plant response rating (wild oat (Avena fatua)): 20 | Plant response rating, Oat, Wild (wild oat (Avena fatua)): 30 | Blackgrass plant response rating [1]: 30 | Plant response rating, Blackgrass [1]: 30 | Plant response rating, Ducksalad [2]: 60 | Plant response rating, Barnyardgrass [3]: 0 | Plant response rating, Sedge, Umbrella [4]: 60 | Plant response rating, Rice (rice (Oryza sativa)): 20 | Cocklebur plant response rating [5, 15]: 100 | Plant response rating, Cocklebur [5, 16]: 100 | Plant response rating, Cocklebur [5, 17]: 80 | Cocklebur plant response rating [5, 18]: 90 | Foxtail, Giant plant response rating [6, 15]: 20 | Plant response rating, Foxtail, Giant [6, 16]: 30 | Plant response rating, Foxtail, Giant [6, 17]: 0 | Foxtail, Giant plant response rating [6, 18]: 40 | Morningglory plant response rating [7, 15]: 70 | Plant response rating, Morningglory [7, 16]: 90 | Plant response rating, Morningglory [7, 17]: 80 | Morningglory plant response rating [7, 18]: 90 | Corn plant response rating (corn (Zea mays); [15]): 0 | Plant response rating, Corn (corn (Zea mays); [16]): 20 | Plant response rating, Corn (corn (Zea mays); [17]): 10 | Corn plant response rating (corn (Zea mays); [18]): 50 | Velvetleaf plant response rating [8, 15]: 60 | Plant response rating, Velvetleaf [8, 16]: 70 | Plant response rating, Velvetleaf [8, 17]: 80 | Velvetleaf plant response rating [8, 18]: 90 | Wheat plant response rating [9, 15]: 20 | Plant response rating, Wheat [9, 16]: 30 | Plant response rating, Wheat [9, 17]: 10 | Wheat plant response rating [9, 18]: 50 | Pigweed plant response rating [10, 15]: 60 | Plant response rating, Pigweed [10, 16]: 70 | Plant response rating, Pigweed [10, 17]: 90 | Pigweed plant response rating [10, 18]: 100 | Lambsquarters plant response rating [11, 15]: 80 | Plant response rating, Lambsquarters [11, 16]: 90 | Plant response rating, Lambsquarters [11, 17]: 90 | Lambsquarters plant response rating [11, 18]: 100 | Barnyardgrass plant response rating [12, 15]: 0 | Plant response rating, Barnyardgrass [12, 16]: 0 | Plant response rating, Barnyardgrass [12, 17]: 30 | Barnyardgrass plant response rating [12, 18]: 60 | Crabgrass plant response rating [13, 15]: 10 | Plant response rating, Crabgrass [13, 16]: 10 | Plant response rating, Crabgrass [13, 17]: 30 | Crabgrass plant response rating [13, 18]: 70 | Surinam Grass plant response rating [14, 15]: 0 | Plant response rating, Surinam Grass [14, 16]: 0 | Plant response rating, Surinam Grass [14, 17]: 0 | Surinam Grass plant response rating [14, 18]: 70

COC(=O)c1nc(C2CC2C)nc(N)c1Br (stereo not shown) [Compound 28]
Oat, Wild plant response rating (wild oat (Avena fatua)): 0 | Plant response rating, Oat, Wild (wild oat (Avena fatua)): 10 | Blackgrass plant response rating [1]: 10 | Plant response rating, Blackgrass [1]: 30 | Plant response rating, Ducksalad [2]: 30 | Plant response rating, Barnyardgrass [3]: 0 | Plant response rating, Sedge, Umbrella [4]: 0 | Plant response rating, Rice (rice (Oryza sativa)): 0 | Cocklebur plant response rating [5, 15]: 90 | Plant response rating, Cocklebur [5, 16]: 100 | Plant response rating, Cocklebur [5, 17]: 80 | Cocklebur plant response rating [5, 18]: 90 | Foxtail, Giant plant response rating [6, 15]: 20 | Plant response rating, Foxtail, Giant [6, 16]: 40 | Plant response rating, Foxtail, Giant [6, 17]: 30 | Foxtail, Giant plant response rating [6, 18]: 50 | Morningglory plant response rating [7, 15]: 90 | Plant response rating, Morningglory [7, 16]: 90 | Plant response rating, Morningglory [7, 17]: 80 | Morningglory plant response rating [7, 18]: 90 | Corn plant response rating (corn (Zea mays); [15]): 0 | Plant response rating, Corn (corn (Zea mays); [16]): 0 | Plant response rating, Corn (corn (Zea mays); [17]): 0 | Corn plant response rating (corn (Zea mays); [18]): 0 | Velvetleaf plant response rating [8, 15]: 70 | Plant response rating, Velvetleaf [8, 16]: 90 | Plant response rating, Velvetleaf [8, 17]: 80 | Velvetleaf plant response rating [8, 18]: 90 | Wheat plant response rating [9, 15]: 0 | Plant response rating, Wheat [9, 16]: 10 | Plant response rating, Wheat [9, 17]: 10 | Wheat plant response rating [9, 18]: 40 | Pigweed plant response rating [10, 15]: 80 | Plant response rating, Pigweed [10, 16]: 90 | Plant response rating, Pigweed [10, 17]: 80 | Pigweed plant response rating [10, 18]: 90 | Lambsquarters plant response rating [11, 15]: 90 | Plant response rating, Lambsquarters [11, 16]: 90 | Plant response rating, Lambsquarters [11, 17]: 80 | Lambsquarters plant response rating [11, 18]: 100 | Barnyardgrass plant response rating [12, 15]: 20 | Plant response rating, Barnyardgrass [12, 16]: 50 | Plant response rating, Barnyardgrass [12, 17]: 10 | Barnyardgrass plant response rating [12, 18]: 30 | Crabgrass plant response rating [13, 15]: 30 | Plant response rating, Crabgrass [13, 16]: 50 | Plant response rating, Crabgrass [13, 17]: 70 | Crabgrass plant response rating [13, 18]: 80 | Surinam Grass plant response rating [14, 15]: 10 | Plant response rating, Surinam Grass [14, 16]: 50 | Surinam Grass plant response rating [14, 18]: 60
